Test results taken from publication PMC9728195, “Purification and Characterization of Anabaena flos-aquae Phenylalanine Ammonia-Lyase as a Novel Approach for Myristicin Biotransformation” (Journal of Microbiology and Biotechnology, 2019).

Assays:
[1] = test system: T1, PAL from Anabaena flos-aquae (A. flos-aquae PAL); test: forward deamination assay, cinnamic acid absorbance at […] nm; assay type: biochemical, Dolichospermum flosaquae; conditions: Tris-HCl pH 8.9; standard assay at 37 °C
T1 construct: native enzyme purified from algal culture (acetone precipitation, Sephadex G-200, DEAE-cellulose); 64 kDa band on SDS-PAGE

[2] = test system: T2, PAL from Spirulina platensis (S. platensis PAL); test: as above; assay type: biochemical, Limnospira platensis; conditions: Tris-HCl pH 8.9; standard assay at 37 °C
T2 construct: native enzyme purified from algal culture (acetone precipitation, Sephadex G-200, DEAE-cellulose); 64 kDa band on SDS-PAGE

[3] = test system: T1, PAL from Anabaena flos-aquae (A. flos-aquae PAL); test: reverse hydroamination assay, L-phenylalanine formation at […] nm; assay type: biochemical, Dolichospermum flosaquae; conditions: co-substrate NH4OH (stock 5 M); Tris-HCl pH 8.9; standard assay at 37 °C
[4] = test system: T2, PAL from Spirulina platensis (S. platensis PAL); test: as above; assay type: biochemical, Limnospira platensis; conditions: co-substrate NH4OH (stock 5 M); Tris-HCl pH 8.9 (standard assay); 37 °C

Structure (SMILES)	Km [1] [µM]	Km [2] [µM]	Km [3] [µM]	Km [4] [µM]
N[C@@H](Cc1ccccc1)C(=O)O [L-phenylalanine]	1500	1640	–	–
O=C(O)/C=C/c1ccccc1 [trans-cinnamic acid]	–	–	300	610
